# In patent publication US6737383B1, “Herbicidal oxadiazolidines” (priority 1999, dated 2004):
# How the values were obtained:
# bedstraw = experiment: Test B pre/postemergence bedstraw; format: in vivo, Galium aparine; settings: Preemergence; for Bedstraw plant response rating: scale of 0 to 10 where 0 is no effect and 10 is complete control
# Outline: (§1)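 Herbicidal effect was estimated by eye on a ten-point control scale after plants spent twelve to sixteen days in a greenhouse following soil or foliar treatment. Foliar sprays targeted plants at one to four leaves; all doses were formulated in a non-phytotoxic solvent with surfactant.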
# blackgrass = experiment: Test B pre/postemergence blackgrass; format: in vivo, Alopecurus myosuroides
# Outline: as §1
# surinam grass = experiment: Test B pre/postemergence surinam grass; format: in vivo, Brachiaria decumbens
# Outline: as §1
# cocklebur = experiment: Test B pre/postemergence cocklebur; format: in vivo, Xanthium strumarium; settings: for Cocklebur plant response rating: scale of 0 to 10 where 0 is no effect and 10 is complete control
# Outline: as §1
# corn = experiment: Test B pre/postemergence corn; format: in vivo, Zea mays; settings: for Corn plant response rating: scale of 0 to 10 where 0 is no effect and 10 is complete control
# Outline: as §1
# morningglory = experiment: Test B pre/postemergence morningglory; format: in vivo, Ipomoea hederacea; settings: for Morningglory plant response rating: scale of 0 to 10 where 0 is no effect and 10 is complete control
# Outline: as §1
# pigweed = experiment: Test B pre/postemergence pigweed; format: in vivo, Amaranthus retroflexus; settings: for Redroot pigweed plant response rating: scale of 0 to 10 where 0 is no effect and 10 is complete control
# Outline: as §1
# rape = experiment: Test B pre/postemergence rape; format: in vivo, Brassica napus; settings: for Rape plant response rating: scale of 0 to 10 where 0 is no effect and 10 is complete control
# Outline: as §1
# soybean = experiment: Test B pre/postemergence soybean; format: in vivo, Glycine max; settings: for Soybean plant response rating: scale of 0 to 10 where 0 is no effect and 10 is complete control
# Outline: as §1
# sugar beet = experiment: Test B pre/postemergence sugar beet; format: in vivo, Beta vulgaris; settings: for Sugarbeets plant response rating: scale of 0 to 10 where 0 is no effect and 10 is complete control
# Outline: as §1
# velvetleaf = experiment: Test B pre/postemergence velvetleaf; format: in vivo, Abutilon theophrasti; settings: for Velvetleaf plant response rating: scale of 0 to 10 where 0 is no effect and 10 is complete control
# Outline: as §1
# wild oat = experiment: Test B pre/postemergence wild oat; format: in vivo, Avena fatua; settings: for Wild oats plant response rating: scale of 0 to 10 where 0 is no effect and 10 is complete control
# Outline: as §1
# purple nutsedge = experiment: Test B pre/postemergence purple nutsedge; format: in vivo, Cyperus rotundus; settings: for Nutsedge plant response rating: scale of 0 to 10 where 0 is no effect and 10 is complete control
# Outline: as §1
# rice = experiment: Test B flood test rice; format: in vivo, Oryza sativa
# Outline: (§2)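 Flood test on plants grown to the 2-leaf stage; treated plants kept in greenhouse twelve to sixteen days, then visually rated against controls on a 0 (no effect) to 10 (complete control) scale.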
# smallflower flatsedge = experiment: Test B flood test smallflower flatsedge; format: in vivo, Cyperus difformis
# Outline: as §2
# bamyardgrass = experiment: Test B flood test barnyardgrass; format: in vivo, Echinochloa crus-galli
# Outline: as §2
# [1] = Postemergence, Rate 125 g/ha, scale 0 to 10, 0 is no effect, 10 is complete control
# [2] = Preemergence, Rate 62 g/ha, scale 0 to 10 (0 no effect, 10 complete control)
# [3] = Preemergence, Rate 250 g/ha, scale of 0 to 10 where 0 is no effect and 10 is complete control
# [4] = Preemergence, Rate 500 g/ha, scale of 0 to 10 where 0 is no effect and 10 is complete control
# [5] = Rate 62 g/ha, Postemergence, scale of 0 to 10 where 0 is no effect and 10 is complete control
# [6] = Rate 250 g/ha, Postemergence, scale of 0 to 10 where 0 is no effect and 10 is complete control
# [7] = Rate 500 g/ha, Postemergence, scale 0 to 10, 0 no effect, 10 complete control
# [8] = Postemergence (flood test), Rate 125 g/ha, scale 0 to 10, 0 is no effect, 10 is complete control
# [9] = Rate 62 g/ha, Postemergence (flood test species), scale of 0 to 10 where 0 is no effect and 10 is complete control
# [10] = Rate 62 g/ha, flood test species, Pre-emergence, visual evaluation after twelve to sixteen days
# [11] = Rate 125 g/ha, Pre-emergence, flood test species, scale 0 to 10 where 0 is no effect and 10 is complete control
# [12] = Rate 250 g/ha, Pre-emergence, flood-test species, scale 0 to 10, 0 is no effect, 10 is complete control
# [13] = Rate 500 g/ha, listed under Postemergence (flood test species), scale 0 to 10, 0 no effect, 10 complete control
# [14] = Rate 500 g/ha, Pre-emergence, flood test species, scale 0 to 10 (0 no effect, 10 complete control)
compound,measurement,setting,value
CC(C)N(C(=O)n1oc(=O)n(C2CCC2)c1=O)c1ccc(F)cc1 [Compound 350],"Plant response rating, Bedstraw","bedstraw; Rate 62 g/ha, scale 0 to 10 (0 no effect, 10 complete control)",10
same,Bedstraw plant response rating (0 to 10 scale),bedstraw; Rate 125 g/ha,10
same,Bedstraw plant response rating,bedstraw; Rate 250 g/ha,10
same,Bedstraw plant response rating,bedstraw; Rate 500 g/ha,10
same,"Plant response rating, Blackgrass",blackgrass; [1],4
same,"Plant response rating, Blackgrass",blackgrass; [2],4
same,Blackgrass plant response rating (0 to 10 scale),"blackgrass; Preemergence, Rate 125 g/ha",5
same,Blackgrass plant response rating,blackgrass; [3],8
same,Blackgrass plant response rating,blackgrass; [4],8
same,Blackgrass plant response rating,blackgrass; [5],4
same,"Plant response rating, Blackgrass",blackgrass; [6],7
same,"Plant response rating, Blackgrass",blackgrass; [7],7
same,"Plant response rating, B. signalgrass",surinam grass; [1],0
same,"Plant response rating, B. signalgrass",surinam grass; [2],0
same,"B. signalgrass plant response rating (0 to 10 scale, 0 is no effect, 10 is complete control)","surinam grass; Preemergence, Rate 125 g/ha",0
same,B. signalgrass plant response rating,surinam grass; [3],2
same,B. signalgrass plant response rating,surinam grass; [4],4
same,B. signalgrass plant response rating,surinam grass; [5],0
same,"Plant response rating, B. signalgrass",surinam grass; [6],0
same,"Plant response rating, B. signalgrass",surinam grass; [7],4
same,"Plant response rating, Cocklebur",cocklebur; [1],0
same,"Plant response rating, Cocklebur",cocklebur; [2],0
same,Cocklebur plant response rating (0 to 10 scale),"cocklebur; Preemergence, Rate 125 g/ha",0
same,Cocklebur plant response rating,"cocklebur; Preemergence, Rate 250 g/ha",0
same,Cocklebur plant response rating,"cocklebur; Preemergence, Rate 500 g/ha",0
same,Cocklebur plant response rating,"cocklebur; Rate 62 g/ha, Postemergence",0
same,"Plant response rating, Cocklebur",cocklebur; [7],3
same,"Plant response rating, Corn",corn; [1],0
same,"Plant response rating, Corn",corn; [2],0
same,Corn plant response rating (0 to 10 scale),"corn; Preemergence, Rate 125 g/ha",0
same,Corn plant response rating,"corn; Preemergence, Rate 250 g/ha",0
same,Corn plant response rating,"corn; Preemergence, Rate 500 g/ha",7
same,Corn plant response rating,"corn; Rate 62 g/ha, Postemergence",0
same,"Plant response rating, Corn",corn; [7],0
same,"Plant response rating, Morningglory",morningglory; [1],6
same,"Plant response rating, Morningglory",morningglory; [2],0
same,Morningglory plant response rating (0 to 10 scale),"morningglory; Preemergence, Rate 125 g/ha",0
same,Morningglory plant response rating,"morningglory; Preemergence, Rate 250 g/ha",0
same,Morningglory plant response rating,"morningglory; Preemergence, Rate 500 g/ha",2
same,Morningglory plant response rating,"morningglory; Rate 62 g/ha, Postemergence",3
same,"Plant response rating, Morningglory",morningglory; [7],9
same,"Plant response rating, Redroot pigweed",pigweed; [1],0
same,"Plant response rating, Redroot pigweed",pigweed; [2],4
same,Redroot pigweed plant response rating (0 to 10 scale),"pigweed; Preemergence, Rate 125 g/ha",10
same,Redroot pigweed plant response rating,"pigweed; Preemergence, Rate 250 g/ha",10
same,Redroot pigweed plant response rating,"pigweed; Preemergence, Rate 500 g/ha",10
same,Redroot pigweed plant response rating,"pigweed; Rate 62 g/ha, Postemergence",0
same,"Plant response rating, Redroot pigweed",pigweed; [7],3
same,"Plant response rating, Rape",rape; [1],0
same,"Plant response rating, Rape",rape; [2],0
same,Rape plant response rating (0 to 10 scale),"rape; Preemergence, Rate 125 g/ha",0
same,Rape plant response rating,"rape; Preemergence, Rate 250 g/ha",7
same,Rape plant response rating,"rape; Preemergence, Rate 500 g/ha",10
same,Rape plant response rating,"rape; Rate 62 g/ha, Postemergence",0
same,"Plant response rating, Rape",rape; [7],2
same,"Plant response rating, Soybean",soybean; [1],1
same,"Plant response rating, Soybean",soybean; [2],0
same,Soybean plant response rating (0 to 10 scale),"soybean; Preemergence, Rate 125 g/ha",0
same,Soybean plant response rating,"soybean; Preemergence, Rate 250 g/ha",0
same,Soybean plant response rating,"soybean; Preemergence, Rate 500 g/ha",2
same,Soybean plant response rating,"soybean; Rate 62 g/ha, Postemergence",1
same,"Plant response rating, Soybean",soybean; [7],3
same,"Plant response rating, Sugarbeets",sugar beet; [1],0
same,"Plant response rating, Sugarbeets",sugar beet; [2],2
same,Sugarbeets plant response rating (0 to 10 scale),"sugar beet; Preemergence, Rate 125 g/ha",2
same,Sugarbeets plant response rating,"sugar beet; Preemergence, Rate 250 g/ha",4
same,Sugarbeets plant response rating,"sugar beet; Preemergence, Rate 500 g/ha",9
same,Sugarbeets plant response rating,"sugar beet; Rate 62 g/ha, Postemergence",0
same,"Plant response rating, Sugarbeets",sugar beet; [7],0
same,"Plant response rating, Velvetleaf",velvetleaf; [1],0
same,"Plant response rating, Velvetleaf",velvetleaf; [2],2
same,Velvetleaf plant response rating (0 to 10 scale),"velvetleaf; Preemergence, Rate 125 g/ha",2
same,Velvetleaf plant response rating,"velvetleaf; Preemergence, Rate 250 g/ha",4
same,Velvetleaf plant response rating,"velvetleaf; Preemergence, Rate 500 g/ha",6
same,Velvetleaf plant response rating,"velvetleaf; Rate 62 g/ha, Postemergence",0
same,"Plant response rating, Velvetleaf",velvetleaf; [7],6
same,"Plant response rating, Wild oats",wild oat; [1],0
same,"Plant response rating, Wild oats",wild oat; [2],0
same,Wild oats plant response rating (0 to 10 scale),"wild oat; Preemergence, Rate 125 g/ha",3
same,Wild oats plant response rating,"wild oat; Preemergence, Rate 250 g/ha",5
same,Wild oats plant response rating,"wild oat; Preemergence, Rate 500 g/ha",7
same,Wild oats plant response rating,"wild oat; Rate 62 g/ha, Postemergence",0
same,"Plant response rating, Wild oats",wild oat; [7],5
same,"Plant response rating, Nutsedge",purple nutsedge; [1],0
same,Nutsedge plant response rating (0 to 10 scale),"purple nutsedge; Preemergence, Rate 125 g/ha",0
same,Nutsedge plant response rating,"purple nutsedge; Preemergence, Rate 250 g/ha",0
same,Nutsedge plant response rating,"purple nutsedge; Preemergence, Rate 500 g/ha",10
same,Nutsedge plant response rating,"purple nutsedge; Rate 62 g/ha, Postemergence",0
same,"Plant response rating, Nutsedge",purple nutsedge; [7],0
same,"Plant response rating, Rice",rice; [8],0
same,Rice plant response rating,rice; [9],0
same,"Plant response rating, Rice (0 to 10 scale, 0 is no effect, 10 is complete control)",rice; [10],0
same,Rice plant response rating,rice; [11],0
same,Rice plant response rating,rice; [12],0
same,"Plant response rating, Rice",rice; [13],0
same,Rice plant response rating,rice; [14],0
same,"Plant response rating, S. Flatsedge",smallflower flatsedge; [8],2
same,S. Flatsedge plant response rating,smallflower flatsedge; [9],0
same,"Plant response rating, S. Flatsedge (0 to 10 scale, 0 is no effect, 10 is complete control)",smallflower flatsedge; [10],0
same,S. Flatsedge plant response rating,smallflower flatsedge; [11],0
same,S. Flatsedge plant response rating,smallflower flatsedge; [12],0
same,"Plant response rating, S. Flatsedge",smallflower flatsedge; [13],8
same,S. Flatsedge plant response rating,smallflower flatsedge; [14],0
same,"Plant response rating, Barnyardgrass",bamyardgrass; [8],0
same,Barnyardgrass plant response rating,bamyardgrass; [9],0
same,"Plant response rating, Barnyardgrass (0 to 10 scale, 0 is no effect, 10 is complete control)",bamyardgrass; [10],0
same,Barnyardgrass plant response rating,bamyardgrass; [11],0
same,"Plant response rating, Barnyardgrass","bamyardgrass; Rate 250 g/ha, Postemergence (flood test species), scale of 0 to 10 where 0 is no effect and 10 is complete control",3
same,Barnyardgrass plant response rating,bamyardgrass; [12],0
same,"Plant response rating, Barnyardgrass",bamyardgrass; [13],5
same,Barnyardgrass plant response rating,bamyardgrass; [14],0
